SMILES strings stand for the structures. Converted amounts (≈) assume the structure as drawn. Read-outs that look alike come from different tables or passages of the source.

Data set [1] has as its system Green algae. The note with it: cited from earlier work.
For data set [2], the system named is D. magna. Briefly: Literature D. magna toxicity data used for hazard ranking. The class given is in vivo, Daphnia magna. Particulars: for Hazard Ranking: GHS, from literature EC50 D. magna 48 h. The source says: (§1) The hazard ranking of antifungal compounds is crucial for understanding their environmental impact and guiding regulatory decisions. This study utilizes data from existing literature to classify the effective concentrations (EC50) of various antifungal compounds according to the Globally Harmonized System of Classification and Labelling of Chemicals (GHS).
(§2) Furthermore, multiple fungicide compounds were classified according to the Globally Harmonized System of Classification and Labeling of Chemicals (GHS) to compare the hazard ranking of substances currently on the market and the two substances of this study.

Data set [3] has as its system D. magna. Particulars: cited from earlier work.
Data set [4] relates to Green algae. As to the kind of experiment: Literature green algae toxicity data used for hazard ranking. The format is cell-based. The note with it: GHS.
From the text: as §1, §2

For data set [5], the system named is R. subcapitata. Briefly: Literature R. subcapitata toxicity data used for hazard ranking. The class given is cell-based, Raphidocelis subcapitata. The note with it: GHS, from literature EC50 R. subcapitata 72 h.
From the text: as §1, §2

The subject of data set [6] is R. subcapitata. Particulars: cited from earlier work.
Another data set deals with Raphidocelis subcapitata. Briefly: Raphidocelis subcapitata growth inhibition test (this study). The class given is cell-based. Particulars: for Hazard Ranking: GHS, from EC50 R. subcapitata 72 h, this study. The procedure: The growth inhibition test with R. subcapitata was conducted following ISO guidelines using an in-house culture at the Hygiene Department at the UNINA. Algal cultures were incubated in Erlenmeyer flasks at 20 ± 1 °C on a shaker at 100 rpm and under continuous daylight fluorescent tube illumination of approximately 6300 lux with […]. The initial inoculum concentration was set at 10^4 cells mL^−1, exposed to the concentrations of 1.56, 3.12, 6.25, 12.50, 25, and 50 mg L^−1 and to a negative control of freshwater media. Six replicates were set up for both the control samples and the treatments and were maintained under the same conditions as the algal culture for 72 h.
(§3) Data were analyzed with R Studio for Windows (Version 2023.06.0). The effective concentrations causing 50% of the response on the organisms A. fischeri, R. subcapitata, and D. magna were estimated by fitting on dose–response models using the extension package “drc” [49]. For the data analysis of R. subcapitata and A. fischeri tests, the measurements were normalized to the control to estimate an inhibition percentage.

Another data set has as its system Aliivibrio fischeri. As to the kind of experiment: Aliivibrio fischeri luminescence inhibition test (this study). The format is cell-based. On the procedure:
The luminescence inhibition test was performed on Allivibrio fischeri (strain NRRL-B-11177), purchased from WaterTox STD (ECOtest S.L., Valencia, Spain), and performed according to [46]. The luminescence was measured using a Microtox luminometer Model 500, (AZUR Environmental, Carlsbad, CA, USA) equipped with a cell incubated at a constant temperature of 15 ± 1 °C, and readings were taken after 30 min of exposure at a wavelength of 490 nm. The Osmotic Adjustment Solution was added to the media to adapt the marine bacterium to freshwater. […] Data were analyzed with R Studio for Windows (Version 2023.06.0). The effective concentrations causing 50% of the response on the organisms A. fischeri, R. subcapitata, and D. magna were estimated by fitting on dose–response models using the extension package “drc” [49]. For the data analysis of R. subcapitata and A. fischeri tests, the measurements were normalized to the control to estimate an inhibition percentage.

Data set [7] relates to Salmonella typhimurium strain TA100. As to the kind of experiment: Salmonella typhimurium mutagenicity assay. The format is cell-based. The note with it: for mutagenicity (result in words): TA100, 1.56 and 50 mg L^−1; for mutagenicity ratio: TA100, both concentrations 1.56 and 50 mg L^−1, mutagenic if ratio 2 or greater. On the procedure:
The mutagenicity in Salmonella typhimurium strain TA100 was assessed by observing the potential mutations that would allow the bacteria to grow without needing histidine (his-), following the protocol. For the assay, a kit obtained from ECOTOX LDS (Milan, Italy) was used to perform the test. Two exposure concentrations of 1.56 and 50 mg L^−1 of each compound were used and bromocresol purple was added as a pH indicator. Distilled water served as the negative control and sodium azide as the positive control for TA100 without S9 ([…]).
The plates were incubated at 37 °C for 3 to 5 days and sealed in hermetic plastic bags to avoid contamination. […] Wells that remained purple indicated a negative result (non-mutagenic compound).
For the test organism S. typhimurium, results were expressed as the mutagenicity ratio. This was calculated by dividing the number of revertants (his+) in the treatments by the number of naturally occurring (negative control). The treatments were considered mutagenic if the mutagenicity ratio was 2 or greater.

The test system of a further data set is Daphnia magna. Briefly: Daphnia magna acute immobilization test (this study). The format is in vivo. Particulars: for immobility: 50 mg L^−1; for Hazard Ranking: GHS, from EC50 D. magna 48 h, this study. The procedure:
The immobilization tests with D. magna were conducted following ISO guidelines using an in-house culture at the Hygiene Department at the UNINA. Organisms under 24 h old were exposed to concentrations of 1.56, 3.12, 6.25, 12.50, 25, and 50 mg L^−1 and to a negative control of freshwater media. Each concentration had four replicates containing five organisms each. The exposure was conducted at a temperature of 20 ± 1 °C and under continuous illumination of approx. 1000 lux. Immobilization was assessed at 24 and 48 h after exposure using a stereomicroscope.
as §3

The test system of data set [8] is A. fischeri, R. subcapitata, and D. magna. Briefly: Summary over the species tested (A. fischeri, R. subcapitata, D. magna) and GHS classification. On the procedure: as §3, §2

With `OC(Cn1cncn1)(Cn1cncn1)c1ccc(F)cc1F` [Fluconazole], the EC50 is 0.001162 µg/mL (≈ 0.00379 µM) in the data set with Green algae [1] (96 h ref 30), 55.4 µg/mL (≈ 181 µM) in the data set with Green algae [1] (96 h ref 37), 0.002766 µg/mL (≈ 0.00903 µM) with D. magna [3] (48 h ref 30) and 530 µg/mL (≈ 1730 µM) in the data set with D. magna [3] (48 h ref 37). The “GHS hazard category (in words)” value in the data set on D. magna [2] (from literature EC50 D. magna, EC50 > 100 mg L^−1) is reported as “not harmful”.

Turning to `CC(=O)N1CCN(c2ccc(OCC3COC(Cn4ccnc4)(c4ccc(Cl)cc4Cl)O3)cc2)CC1` (centres unmarked) [Ketoconazole], the “Hazard Ranking” value in the data set on Green algae [4] (from literature EC50 green algae 72 h) is reported as “**** (Very toxic (≤1 mg L^−1))”; with Green algae [4] (from literature EC50 green algae 96 h), “*** (Toxic (<1 mg L^−1 ≤ 10 mg L^−1))”; in the data set with D. magna [2] it was “*** (Toxic (<1 mg L^−1 ≤ 10 mg L^−1))”; with R. subcapitata [5], “**** (Very toxic (≤1 mg L^−1))”. Besides, the EC50 in the data set with Green algae [1] (72 h ref 38) is 0.28 µg/mL (≈ 0.527 µM); in the data set on Green algae [1] (96 h ref 30), 4.36 µg/mL (≈ 8.2 µM); with R. subcapitata [6] (72 h ref 36) it was 0.28 µg/mL (≈ 0.527 µM); in the data set on R. subcapitata [6] (72 h ref 40) it was 0.3 µg/mL (≈ 0.565 µM); with D. magna [3] (48 h ref 30), 2.39 µg/mL (≈ 4.5 µM); with D. magna [3] (48 h ref 34), 6.57 µg/mL (≈ 12.4 µM). The EC50 in the data set with D. magna [3] (48 h ref 38) was 6.57 µg/mL (≈ 12.4 µM); in the data set on D. magna [3] (48 h ref 39, listed as ketoconazole), 1.51 µg/mL (≈ 2.84 µM); in the data set with D. magna [3] (48 h ref 39), 1.5 µg/mL (≈ 2.82 µM).

For the compound `N=C(N)c1ccc(OCCCC2CCN(CCCOc3ccc(C(=N)N)cc3)CC2)cc1` [T-2307], the “Hazard Ranking” value in the data set with Raphidocelis subcapitata was “** (Harmful: (<10 mg L^−1 ≤ 100 mg L^−1))”. For the same compound, the “EC50 (effective concentration causing 50% growth inhibition)” value in the data set on Raphidocelis subcapitata (R. subcapitata, 72 h) worked out at 14.34 µg/mL (≈ 32.8 µM). In the data set with Raphidocelis subcapitata (R. subcapitata, 72 h, 50 mg L^−1), the growth inhibition entry was “around 82%”. Also, the “EC50 (effective concentration causing 50% luminescence inhibition)” value in the data set on Aliivibrio fischeri (A. fischeri, 30 min) turned out to be 22.58 µg/mL (≈ 51.6 µM). The luminescence inhibition with Aliivibrio fischeri (A. fischeri, 30 min, 50 mg L^−1) is roughly 75%. Further, in data set [7], the “mutagenicity (result in words)” value is “non-positive mutagenicity” and the mutagenicity ratio is listed as less than 2. In addition, in the data set with Daphnia magna (D. magna, 48 h), the “EC50 (effective concentration causing 50% of immobility)” value stood at 17.93 µg/mL and the immobility was 90%. Further, the “Hazard Ranking” value in the data set with Daphnia magna is “** (Harmful: (<10 mg L^−1 ≤ 100 mg L^−1))”.

Take `CC(C)(C)C(O)(CCc1ccc(Cl)cc1)Cn1cncn1` (centres unmarked) [Tebuconazole]: the “Hazard Ranking” value in the data set with D. magna [2] and in the data set on R. subcapitata [5] was “*** (Toxic (<1 mg L^−1 ≤ 10 mg L^−1))” each time. Also, the EC50 in the data set on R. subcapitata [6] (72 h ref 42) is 2.09 µg/mL (≈ 6.79 µM); in the data set on D. magna [3] (48 h ref 41) it was 2.37 µg/mL (≈ 7.7 µM); in the data set on D. magna [3] (48 h ref 42) it was 6.75 µg/mL (≈ 21.9 µM).

The inhibition is the percentage by which the read-out fell short of the control. High values mean a response far below the control, low ones a response near the control. Take `O[C@@](Cn1cnnn1)(c1ccc(F)cc1F)C(F)(F)c1ccc(-c2ccc(OCC(F)(F)F)cc2)cn1` [VT-1161, oteseconazole]: the “Hazard Ranking” value in the data set on Raphidocelis subcapitata is “** (Harmful: (<10 mg L^−1 ≤ 100 mg L^−1))”; in the data set with Aliivibrio fischeri (GHS, from EC50 A. fischeri 30 min, this study) it was “** (Harmful: (<10 mg L^−1 ≤ 100 mg L^−1))”; in the data set on Daphnia magna it was “** (Harmful: (<10 mg L^−1 ≤ 100 mg L^−1))”. Further, the EC50 in the data set with Raphidocelis subcapitata (Raphidocelis subcapitata, read-out: EC50 (effective concentration causing 50% growth inhibition), R. subcapitata, 72 h) is 27.9 µg/mL (≈ 52.9 µM); with Aliivibrio fischeri (Aliivibrio fischeri, 0.5 h, read-out: EC50 (effective concentration causing 50% luminescence inhibition), A. fischeri, 30 min), 22.4 µg/mL (≈ 42.5 µM); in data set [8] (A. fischeri, R. subcapitata, D. magna, read-out: EC50 values, range over the species tested), 20.9 to 27.9 µg/mL (≈ 39.7 to 52.9 µM); in the data set on Daphnia magna (Daphnia magna, read-out: EC50 (effective concentration causing 50% of immobility), D. magna, 48 h) it was 20.9 µg/mL (≈ 39.7 µM). In addition, the inhibition at 50 µg/mL in the data set with Raphidocelis subcapitata (Raphidocelis subcapitata, R. subcapitata, 72 h, 50 mg L^−1) was roughly 65%; with Aliivibrio fischeri (Aliivibrio fischeri, 0.5 h, A. fischeri, 30 min, 50 mg L^−1), roughly 63%. Besides, in data set [8] (EC50 values between 10 mg L^−1 and 100 mg L^−1), the “GHS classification (in words)” value is reported as “harmful”. Further, in data set [7], the “mutagenicity (result in words)” value was “non-positive mutagenicity”. In addition, the mutagenicity ratio in data set [7] is given as less than 2. The immobility in the data set with Daphnia magna (D. magna, 48 h) came to 100%.

In the case of `CC(C)(C)C(=O)C(Oc1ccc(Cl)cc1)n1ccnc1` (centres unmarked) [climbazole], the EC50 in the data set with D. magna [3] (exposure time not printed ref 30) is 15.99 µg/mL (≈ 54.6 µM).

The values above are taken from paper PMC11477875, “Ecotoxicity and Mutagenicity Assessment of Novel Antifungal Agents VT-1161 and T-2307” (Molecules, 2024).
